# From US10221160B2, “Metalloenzyme inhibitor compounds” (Mycovia Pharmaceuticals, Inc., priority 2012, dated 2019)
# Test system: C. albicans
# Test: Minimum Inhibitory Concentration (MIC), CLSI M27-A2
# Format: cell-based
# Settings: Candida albicans, 48 h, about 50% growth reduction, approximately 48 h at 35 °C, read-out: Candida MIC
# Experimental: A. Minimum Inhibitory Concentration (MIC) Compounds were assessed for their ability to inhibit the growth of common strains of fungus, C. albicans using a standardized procedure (CLSI M27-A2). Stock solutions of the test compounds and standards were prepared in DMSO at 1,600 μg/mL (C. albicans). Eleven, serial, one-half dilutions of compounds were prepared in 96-well plates in RPMI+MOPS. The assay concentration ranges were 8-0.001 μg/mL (C. albicans). Cell suspensions of C. albicans were prepared and added to each well at concentrations of approximately 3.7×10^3 colony-forming-units per milliliter (cfu/mL). All testing was in duplicate. The inoculated plates were incubated for approximately 48 h at 35±1° C. At the completion of incubation the wells of each plate were evaluated visually for the presence of fungal growth. […] For QC purposes C. krusei isolate ATCC 6258 (4.0×10^3 cfu/mL) was included in the VOR assay.
row,MIC [µg/mL],SMILES
1,≤ 0.016,"OC(Cn1cnnn1)(c1ccc(F)cc1F)C(F)(F)c1ccc(-c2ccc(C(F)(F)F)cc2)cn1 (stereo not shown) [Example 2, 2-(2,4-Difluorophenyl)-1,1-difluoro-3-(1H-tetrazol-1-yl)-1-(5-(4-(trifluoromethyl)phenyl)pyridin-2-yl) propan-2-ol]"

# Same assay, conditions: Candida albicans, rating scale, read-out: Candida MIC Rating
row,SMILES,MIC [µg/mL]
1,"CC(C)(C)Oc1ccc(-c2ccc(C(F)(F)C(O)(Cn3cnnn3)c3ccc(F)cc3F)nc2)cc1 (stereo not shown) [Example 28, 1-(5-(4-(tert-Butoxy)phenyl)pyridin-2-yl)-2-(2,4-difluorophenyl)-1,1-difluoro-3-(1H-tetrazol-1-yl)propan-2-ol]",< 0.5
2,"CNC(=O)c1ccc(-c2ccc(C(F)(F)C(O)(Cn3cnnn3)c3ccc(F)cc3F)nc2)cc1 (stereo not shown) [Example 42, 4-(6-(2-(2,4-Difluorophenyl)-1,1-difluoro-2-hydroxy-3-(1H-tetrazol-1-yl)propyl)pyridin-3-yl)-N-methylbenzamide]",< 0.5
3,"OC(Cn1cnnn1)(c1ccc(F)cc1F)C(F)(F)c1ccc(-c2ccc(F)cc2)cn1 (stereo not shown) [Example 5, 2-(2,4-Difluorophenyl)-1,1-difluoro-1-(5-(4-fluorophenyl)pyridin-2-yl)-3-(1H-tetrazol-1-yl)propan-2-ol]",< 0.5
4,"OC(Cn1cnnn1)(c1ccc(F)cc1F)C(F)(F)c1ccc(-c2ccc(SC(F)(F)F)cc2)cn1 (stereo not shown) [Example 27, 2-(2,4-Difluorophenyl)-1,1-difluoro-3-(1H-tetrazol-1-yl)-1-(5-(4-((trifluoromethyl)thio)phenyl)pyridin-2-yl)propan-2-ol]",< 0.5
5,"CC(F)(c1ccc(-c2ccc(F)cc2)cn1)C(O)(Cn1ncnn1)c1ccc(F)cc1F (stereo not shown) [Example 48, 2-(2,4-Difluorophenyl)-3-fluoro-3-(5-(4-fluorophenyl)pyridin-2-yl)-1-(2H-tetrazol-2-yl)butan-2-ol]",1.5 to 4
6,"OC(Cn1cnnn1)(c1ccc(F)cc1F)C(F)(F)c1ccc(-c2cccc(C(F)(F)F)c2)cn1 (stereo not shown) [Example 31, 2-(2,4-Difluorophenyl)-1,1-difluoro-3-(1H-tetrazol-1-yl)-1-(5-(3-(trifluoromethyl)phenyl)pyridin-2-yl)propan-2-ol]",< 0.5
7,"OC(Cn1cnnn1)(c1ccc(F)cc1F)C(F)(F)c1ccc(-c2cccc(Cl)c2)cn1 (stereo not shown) [Example 8, 1-(5-(3-Chlorophenyl)pyridin-2-yl)-2-(2,4-difluorophenyl)-1,1-difluoro-3-(1H-tetrazol-1-yl)propan-2-ol]",< 0.5

# Now from value to compound:
row,MIC [µg/mL],SMILES
1,< 0.5,"OC(Cn1cnnn1)(c1ccc(F)cc1F)C(F)(F)c1ccc(-c2ccc(C(F)(F)F)cc2)cn1 (stereo not shown) [Example 2, 2-(2,4-Difluorophenyl)-1,1-difluoro-3-(1H-tetrazol-1-yl)-1-(5-(4-(trifluoromethyl)phenyl)pyridin-2-yl) propan-2-ol]"
2,< 0.5,"OC(Cn1cnnn1)(c1ccc(F)cc1F)C(F)(F)c1ccc(-c2ccc(SCC(F)(F)F)cc2)cn1 (stereo not shown) [Example 45, 2-(2,4-Difluorophenyl)-1,1-difluoro-3-(1H-tetrazol-1-yl)-1-(5-(4-((2,2,2-trifluoroethyl)thio)phenyl)pyridin-2-yl)propan-2-ol]"
3,< 0.5,"O=C(Nc1ccc(-c2ccc(C(F)(F)C(O)(Cn3cnnn3)c3ccc(F)cc3F)nc2)cc1)C(F)(F)F (stereo not shown) [Example 37, N-(4-(6-(2-(2,4-Difluorophenyl)-1,1-difluoro-2-hydroxy-3-(1H-tetrazol-1-yl)propyl)pyridin-3-yl)phenyl)-2,2,2-trifluoroacetamide]"
4,< 0.5,OC(Cn1cnnn1)(c1ccc(F)cc1F)C(F)(F)c1ccc(-c2ccc(SC(F)F)cc2)cn1 (stereo not shown) [Example 40]
5,< 0.5,"OC(Cn1cnnn1)(c1ccc(F)cc1F)C(F)(F)c1ccc(-c2ccccc2)cn1 (stereo not shown) [Example 35, 2-(2,4-Difluorophenyl)-1,1-difluoro-1-(5-phenylpyridin-2-yl)-3-(1H-tetrazol-1-yl)propan-2-ol]"
6,0.5 to 1.5,"CC(F)(c1ccc(-c2ccc(OC(F)(F)F)cc2)cn1)C(O)(Cn1cnnn1)c1ccc(F)cc1F (stereo not shown) [Example 46, 2-(2,4-Difluorophenyl)-3-fluoro-1-(1H-tetrazol-1-yl)-3-(5-(4-(trifluoromethoxy)phenyl)-pyridin-2-yl)butan-2-ol]"

# Same assay, conditions: Candida albicans, read-out: Candida MIC Rating
row,SMILES,MIC [µg/mL]
1,"OC(Cc1cc[nH]n1)(c1ccc(F)cc1F)C(F)(F)c1ccc(-c2ccc(OC(F)(F)F)cc2)cn1 (stereo not shown) [Example 15, 2-(2,4-Difluorophenyl)-1,1-difluoro-3-(1H-pyrazol-3-yl)-1-(5-(4-(trifluoromethoxy)phenyl)pyridin-2-yl)propan-2-ol]",< 0.5
2,"OC(Cn1cnnn1)(c1ccc(F)cc1F)C(F)(F)c1ccc(-c2ccc(OCC(F)(F)C(F)(F)F)cc2)cn1 (stereo not shown) [Example 12, 2-(2,4-Difluorophenyl)-1,1-difluoro-1-(5-(4-(2,2,3,3,3-pentafluoropropoxy)phenyl)pyridin-2-yl)-3-(1H-tetrazol-1-yl)propan-2-ol]",< 0.5

# Same assay, conditions: rating scale
row,Candida MIC Rating,SMILES
1,B (>0.5-1.5),"CC(F)(c1ccc(-c2ccc(C(F)(F)F)cc2)cn1)C(O)(Cn1cnnn1)c1ccc(F)cc1F (stereo not shown) [Example 53, 2-(2,4-Difluorophenyl)-3-fluoro-1-(1H-tetrazol-1-yl)-3-(5-(4-(trifluoromethyl)phenyl)pyridin-2-yl)butan-2-ol]"
2,C (>1.5-4),"CC(F)(c1ccc(-c2ccc(OCC(F)(F)F)cc2)cn1)C(O)(Cn1cnnn1)c1ccc(F)cc1F (stereo not shown) [Example 56, 2-(2,4-Difluorophenyl)-3-fluoro-1-(1H-tetrazol-1-yl)-3-(5-(4-(2,2,2-trifluoroethoxy)phenyl)pyridin-2-yl)butan-2-ol]"
3,C (>1.5-4),"CC(F)(c1ccc(-c2ccc(Cl)cc2)cn1)C(O)(Cn1cnnn1)c1ccc(F)cc1F (stereo not shown) [Example 54, 3-(5-(4-Chlorophenyl)pyridin-2-yl)-2-(2,4-difluorophenyl)-3-fluoro-1-(1H-tetrazol-1-yl)butan-2-ol]"
4,A (≤0.5),"CC(F)(c1ccc(-c2ccc(OC(F)(F)F)cc2)cn1)C(O)(Cn1cnnn1)c1ccc(F)cc1F (stereo not shown) [Example 47, 2-(2,4-Difluorophenyl)-3-fluoro-1-(1H-tetrazol-1-yl)-3-(5-(4-(trifluoromethoxy)phenyl)-pyridin-2-yl)butan-2-ol]"
5,C (>1.5-4),"OC(Cn1cnnn1)(c1ccc(F)cc1F)C(F)(F)c1ccc(-c2ccc(OCC(F)(F)F)cc2)cn1 (stereo not shown) [Example 39, 2-(2,4-Difluorophenyl)-1,1-difluoro-3-(1H-tetrazol-1-yl)-1-(5-(4-(2,2,2-trifluoroethoxy)phenyl)pyridin-2-yl)propan-2-ol]"

# Target: CYP3A4 (Homo sapiens (Human), UniProt P08684)
# Test: Inhibition of liver cytochrome P450 enzymes (pooled human liver microsomes)
# Format: in vitro ADME
# Settings: not given
# Experimental: A. […] Solutions of each test compound were separately prepared at concentrations of 20000, 6000, 2000, 600, 200, and 60 μM by serial dilution with DMSO:MeCN (50:50 v/v). The individual test compound solutions were then diluted 20-fold with DMSO:MeCN:deionized water (5:5:180 v/v/v) to concentrations of 1000, 300, 100, 30, 10, and 3 μM. […] The mixed inhibitor solutions were then diluted 20-fold with DMSO:MeCN:deionized water (5:5:180 v/v/v) to concentrations of 300, 100, 30, 10, 3, 1, 0.3, and 0.1 μM. The percent of organic solvent attributable to the test compound or inhibitor mixture in the final reaction mixture was 2% v/v. Pooled human liver microsome suspension (20 mg/mL) was diluted with phosphate buffer to obtain a 5 mg/mL suspension. A solution of NADPH was prepared in phosphate buffer at a concentration of 5 mM. Separate stock solutions of each substrate were prepared in DMSO:MeCN (50:50 v/v), mixed, and diluted in phosphate buffer to obtain a single solution containing each substrate at five times its experimentally determined Km concentration. […] A portion of the supernatant was analyzed by gradient reverse-phase HPLC with detection by electrospray ionization triple quadrupole mass spectrometry in the positive ion mode. Data was fitted to sigmoid dose-response curves and the inhibitory potency of each test compound was determined as its IC50 value.
# Sequence of CYP3A4 (P08684 whole entry): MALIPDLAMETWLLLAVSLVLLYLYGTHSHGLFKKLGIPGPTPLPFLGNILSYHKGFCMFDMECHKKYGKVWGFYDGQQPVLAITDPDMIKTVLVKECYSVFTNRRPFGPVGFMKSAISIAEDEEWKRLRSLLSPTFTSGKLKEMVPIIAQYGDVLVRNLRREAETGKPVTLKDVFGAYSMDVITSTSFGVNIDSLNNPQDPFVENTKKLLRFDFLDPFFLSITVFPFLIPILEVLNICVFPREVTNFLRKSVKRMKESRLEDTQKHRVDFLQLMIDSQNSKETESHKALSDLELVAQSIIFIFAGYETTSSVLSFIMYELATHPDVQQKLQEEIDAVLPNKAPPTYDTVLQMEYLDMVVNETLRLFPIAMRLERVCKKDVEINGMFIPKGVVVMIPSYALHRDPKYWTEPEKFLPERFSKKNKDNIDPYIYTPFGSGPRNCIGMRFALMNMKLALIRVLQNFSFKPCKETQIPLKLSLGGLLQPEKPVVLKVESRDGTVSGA
row,IC50 [µM],SMILES
1,> 60,"OC(Cn1cnnn1)(c1ccc(F)cc1F)C(F)(F)c1ccc(-c2ccc(C(F)(F)F)cc2)cn1 (stereo not shown) [Example 2, 2-(2,4-Difluorophenyl)-1,1-difluoro-3-(1H-tetrazol-1-yl)-1-(5-(4-(trifluoromethyl)phenyl)pyridin-2-yl) propan-2-ol]"
